Experimental data from patent US20250040539A1, “COMPOSITION COMPRISING AN ANTIMICROBIAL AGENT AND A CARBOXAMIDE” (BASF SE, priority 2021, published 2025).

Tests used:
Format in all cases: cell-based
[1] = tested on: fungal mix: Aspergillus brasiliensis DSM 1988, Rhodotorula mucilaginosa DSM 13621, Yarrowia lipolytica DSM 8218; test: Preservative activity in a manual dishwashing composition (MDW, pH 7.1) with 1.0% 2-phenoxyethanol against fungal mix (Example 1.2); details: MDW + 1.0% PE, no amide (Comparative)
Description: (§1) A manual dish wash detergent (MDW) of pH 7.1 containing the following components was used:
(§2) The samples were contaminated with a fungal mix consisting of: • Aspergillus brasiliensis DSM 1988 • Rhodotorula mucilaginosa DSM 13621 • Yarrowia lipolytica DSM 8218
(§3) The samples were inoculated with the fungal mix at day 0 and 7 to obtain 1-3×10E+05 CFU/ml inoculation in the test sample consisting of the above-defined dish wash detergent MDW and stored at 25° C. for 21 days. CFU was determined before re-inoculation at day 7, and on days 14 and 21.
Any CFU value at d7, d14 or d21 obtained with a MDW sample of the invention containing 2-phenoxyethanol and amide (MDW+1.0% PE+x % of Amide) lower than the respective value of the comparative example (MDW+1.0% by weight of 2-phenoxyethanol) indicates a better performance of the inventive combination of 2-phenoxyethanol with the amide.

[2] = tested on: fungus Aspergillus brasiliensis DSM 1988; test: Preservative activity in an enzyme (mannanase) solution of pH 6 with 2-phenoxyethanol (Example 1.4); details: for d0 [CFU/ml]: day 0 (inoculation); for d2 [CFU/ml]: day 2; for d7 [CFU/ml]: day 7; for d14 [CFU/ml]: day 14; for d15 [CFU/ml]: day 15 (after re-inoculation); for d22 [CFU/ml]: day 22; for d29 [CFU/ml]: day 29
Description: A enzyme solution of pH 6 containing the hydrolase mannanase of the following composition was used:
The samples were contaminated with the fungus Aspergillus brasiliensis DSM 1988.
The samples were inoculated with the fungus at day 0 and 15 to obtain 1-3×10E+05 CFU/ml inoculation in the test sample consisting of the above-defined enzyme solution and stored at 25° C. for 29 days. CFU was determined at days 0, 2, 7, 14, 15 (after re-inoculation), 22 and 29 (abbreviated d0, d2, d7, d14, d15, d22, d29).
Any CFU value at d2, d7, d14, d22 or d29 obtained with an enzyme solution sample of the invention containing 2-phenoxyethanol and amide (enzyme solution+0.7% PE+0.07% of amide) lower than the respective value of the comparative example (enzyme solution+0.7% by weight of 2-phenoxyethanol) indicates a better performance of the inventive combination of 2-phenoxyethanol with the amide.
The amide used was N,N-dimethyl-n-decanoyl amide (=n-decanoyl-N,N-dimethylamide).

[3] = tested on: fungal mix: Aspergillus brasiliensis DSM 1988, Rhodotorula mucilaginosa DSM 13621, Yarrowia lipolytica DSM 8218; test: Preservative activity in a manual dishwashing composition (MDW, pH 7.1) with 2.0% 2-phenoxyethanol against fungal mix (Example 1.3); details: for d7 [CFU/ml]: day 7; for d14 [CFU/ml]: day 14; for d21 [CFU/ml]: day 21
Description: as §1, §2, §3
Any CFU value at d7, d14 or d21 obtained with a MDW sample of the invention containing 2-phenoxyethanol and amide (MDW+2.0% PE+1% of Amide) lower than the respective value of the “comparative 2” example (MDW+2.0% by weight of 2-phenoxyethanol) indicates a better performance of the inventive combination of 2-phenoxyethanol with the amide.

[4] = tested on: fungal mix (including yeasts and molds): Aspergillus brasiliensis DSM 1988, Rhodotorula mucilaginosa DSM 13621, Yarrowia lipolytica DSM 8218; test: Preservative activity of a basic composition (10% PG in water, pH 7) with 2-phenoxyethanol against fungal contamination (Example 1.1); details: 25° C.; for d21 [CFU/ml]: day 21
Description: An aqueous composition of pH 7 comprising 10% by weight of propyleneglycol (PG) as organic solvent, 0.36% by weight of 2-phenoxyethanol (PE) as antimicrobial and 0.04% by weight of the amide listed in the below table was tested for its preserving activity against fungal contamination (the percentages are weight percent and relate to the total weight of the composition). For this purpose, the samples were contaminated with a fungal mix (including yeasts and molds) consisting of: • Aspergillus brasiliensis DS M 1988 • Rhodotorula mucilaginosa DSM 13621 • Yarrowia lipolytica DS M 8218
To control the efficacy, following control compositions were tested: • “Reference”, consisting of only 10% by weight of propylene glycol in water • “Comparative 1” containing 10% by weight of propylene glycol and amide in the given concentration, but no 2-phenoxyethanol • […] in the given concentration, but no amide.
The samples were inoculated with the fungal mix at day 0, 7 and 14 to obtain a cell density in the range of 1-3×10E+05 CFU/ml (CFU=colony forming units) in the test samples (compositions listed in the below table) and stored at 25° C. for 21 days.
CFU was determined before re-inoculation at days 7 and 14, and on day 21.

[5] = tested on: bacterial mix: Escherichia coli DSM 1576, Alcaligenes faecalis DSM 13644, Pseudomonas aeruginosa ATCC 15442, Staphylococcus aureus ATCC 6538, Burkholderia …; test: Preservative activity of a basic composition (10% PG in water, pH 7) with 1,2-benzisothiazol-3(2H)-one (BIT) against bacterial contamination (Example 2.3); details: day 7
Description: An aqueous composition of pH 7 comprising 10% by weight of propyleneglycol (PG) as organic solvent, 0.004% by weight of 1,2-benzisothiazol-3(2H)-one (BIT) as antimicrobial and 0.04% by weight of the amide listed in the below table was tested for its preserving activity against bacterial contamination (the percentages are weight percent and relate to the total weight of the composition). For this purpose, the samples were contaminated with a bacterial mix consisting of: • Escherichia coli DSM 1576 • Alcaligenes faecalis DSM 13644 • Pseudomonas aeruginosa ATCC 15442 • Staphylococcus aureus ATCC 6538 • Burkholderia cepacia DSM 7288 • Pseudomonas putida DSM 12735
The samples were inoculated with the bacterial mix at day 0 to obtain 10E+06 to 10E+07 CFU/ml inoculation in the test sample and stored at 25° C. for 7 days.
CFU was determined at day 7.
Any CFU value at day 7 (d7) obtained with a sample according to the invention containing BIT and amide (10% PG+0.004% BIT+Amide in water) lower than the respective value of the “comparative 2” example (10% by weight of propyleneglycol+0.004% by weight of 1,2-benzisothiazol-3(2H)-one (BIT) in water) indicates a better performance.

[6] = Enzyme solution + 0.7% PE, no amide (Comparative)
[7] = MDW + 2.0% PE, no amide (Comparative 2)
[8] = Enzyme solution + 0.7% PE + 0.07% amide
[9] = MDW + 1.0% amide, no PE (Comparative 1)

SMILES: OCCOc1ccccc1 [PE, 2-phenoxyethanol, reference compound]
- d7 [CFU/ml] ([1]; day 7): 38,000 CFU/ml
- d14 [CFU/ml] ([1]; day 14): 27,000 CFU/ml
- d21 [CFU/ml] ([1]; day 21): 3,700 CFU/ml
- d0 [CFU/ml] [2, 6]: 110,000 CFU/ml
- d2 [CFU/ml] [2, 6]: 92,000 CFU/ml
- d7 [CFU/ml] [2, 6]: 29,000 CFU/ml
- d14 [CFU/ml] [2, 6]: 21,000 CFU/ml
- d15 [CFU/ml] [2, 6]: 300,000 CFU/ml
- d22 [CFU/ml] [2, 6]: 67,000 CFU/ml
- d29 [CFU/ml] [2, 6]: 100,000 CFU/ml
- d7 [CFU/ml] [3, 7]: 27,500 CFU/ml
- d14 [CFU/ml] [3, 7]: 22,000 CFU/ml
- d21 [CFU/ml] [3, 7]: 18,000 CFU/ml
- d7 [CFU/ml] ([4]; 10% PG + 0.4% PE, no amide (Comparative 2), fungal mix inoculated at day 0, 7 and 14, day 7): 10,000 CFU/ml
- d14 [CFU/ml] ([4]; 10% PG + 0.4% PE, no amide (Comparative 2), fungal mix inoculated at day 0, 7 and 14, day 14): 16,000 CFU/ml
- d21 [CFU/ml] ([4]; 10% PG + 0.4% PE, no amide (Comparative 2), fungal mix inoculated at day 0, 7 and 14): 38,500 CFU/ml

SMILES: CCCCCCCCCC(=O)N(C)C [n-Decanoyl-N,N-dimethylamide]
- d0 [CFU/ml] ([2]; Enzyme solution + 0.7% PE + 0.07% amide (N,N-dimethyl-n-decanoyl amide)): 110,000 CFU/ml
- d2 [CFU/ml] [2, 8]: 80,000 CFU/ml
- d7 [CFU/ml] [2, 8]: 240 CFU/ml
- d14 [CFU/ml] [2, 8]: 30 CFU/ml
- d15 [CFU/ml] [2, 8]: 300,000 CFU/ml
- d22 [CFU/ml] [2, 8]: 14,000 CFU/ml
- d29 [CFU/ml] [2, 8]: 70 CFU/ml
- d7 [CFU/ml] ([5]; 10% PG + 0.004% BIT + 0.04% amide): 4,000 CFU/ml
- d7 [CFU/ml] ([5]; 10% PG + 0.1% amide, no BIT (Comparative 1)): >100,000 CFU/ml
- d7 [CFU/ml] [3, 9]: 50,500 CFU/ml
- d14 [CFU/ml] [3, 9]: 97,500 CFU/ml
- d21 [CFU/ml] [3, 9]: 83,000 CFU/ml
- d7 [CFU/ml] ([3]; MDW + 2.0% PE + 1.0% amide): 19,000 CFU/ml
- d14 [CFU/ml] ([3]; MDW + 2.0% PE + 1.0% amide): 10,000 CFU/ml
- d21 [CFU/ml] ([3]; MDW + 2.0% PE + 1.0% amide): 5,000 CFU/ml
- d7 [CFU/ml] ([4]; 10% PG + 0.36% PE + 0.04% Amide in water, pH 7, fungal mix inoculated at day 0, 7 and 14 (1-3x10E+05 CFU/ml), day 7 before re-inoculation): <10 CFU/ml
- d14 [CFU/ml] ([4]; 10% PG + 0.36% PE + 0.04% Amide in water, pH 7, fungal mix inoculated at day 0, 7 and 14, day 14 before re-inoculation): <10 CFU/ml
- d21 [CFU/ml] ([4]; 10% PG + 0.36% PE + 0.04% Amide in water, pH 7, fungal mix inoculated at day 0, 7 and 14): <10 CFU/ml
